The experiment addresses Mitogen-activated protein kinase 9 (Homo sapiens, UniProt P45984). Description: Inhibition of His6-tagged JNK2 (unknown origin) assessed as reduction in c-Jun phosphorylation using GST-c-Jun (1 to 79 residues) and [gamma32P]ATP incubated for 1 hr by scintillation counting assay.

Drawing on ChEMBL document CHEMBL3882725, “Indazole derivatives as JNK inhibitors and compositions and methods related thereto” (2002), this text covers IC50 for 90 compounds.

Sequence of Mitogen-activated protein kinase 9 (P45984 whole entry, the tested form may be a part): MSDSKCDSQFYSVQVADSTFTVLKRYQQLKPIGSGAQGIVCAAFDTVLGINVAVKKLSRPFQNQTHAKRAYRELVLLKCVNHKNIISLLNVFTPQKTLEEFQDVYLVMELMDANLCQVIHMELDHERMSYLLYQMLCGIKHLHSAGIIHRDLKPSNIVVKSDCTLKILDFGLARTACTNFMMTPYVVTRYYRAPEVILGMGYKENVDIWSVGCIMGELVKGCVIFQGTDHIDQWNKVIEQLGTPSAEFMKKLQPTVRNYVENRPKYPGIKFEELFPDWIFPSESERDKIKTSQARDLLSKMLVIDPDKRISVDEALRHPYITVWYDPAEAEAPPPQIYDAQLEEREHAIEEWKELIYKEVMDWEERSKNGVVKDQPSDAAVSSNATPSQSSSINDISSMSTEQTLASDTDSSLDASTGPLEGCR

Usually IC50 stands for the concentration that gives 50% inhibition. For the compound `COc1ccc(/C=C/c2n[nH]c3ccc(-c4nc[nH]n4)cc23)cc1`, the IC50 is 1 to 10 µM.

With `COCCNc1cccc(-c2n[nH]c3ccc(C(N)=O)cc23)c1`, the IC50 fell in the range of 1 to 10 µM.

On to `O=C(Cc1ccc(F)cc1)Nc1cccc(-c2n[nH]c3ccc(-c4nc[nH]n4)cc23)c1`, for which the IC50 lay in the range of 0.5 to 10 µM.

For the compound `O=C(Nc1ccc2[nH]nc(-c3ccc(F)cc3)c2c1)c1cccs1`, the IC50 was 1 to 10 µM.

On to `Fc1ccc(-c2n[nH]c3ccc(-c4nnc(CN5CCOCC5)o4)cc23)cc1`, for which the IC50 lay within 1 to 10 µM.

Consider `C(#Cc1n[nH]c2ccc(-c3nnc[nH]3)cc12)c1ccccc1`, for which the IC50 lay within 1 to 10 µM.

For the compound `Nc1cccc(-c2n[nH]c3ccc(-c4nnn[nH]4)cc23)c1`, the IC50 was in the range of 0.5 to 10 µM.

As to `c1nc(-c2ccc3[nH]nc(-c4ccc5c(c4)CCO5)c3c2)n[nH]1`, the IC50 was 1 to 10 µM.

Take `CN(C)CC(=O)Nc1cccc(-c2n[nH]c3ccc(-c4nc[nH]n4)cc23)c1`: the IC50 lay in the range of 0.5 to 10 µM.

Regarding `O=C(NOCc1ccccc1)c1ccc2[nH]nc(-c3ccc(F)cc3)c2c1`, the IC50 was no more than 10 µM.

`COCC(=O)Nc1cccc(-c2n[nH]c3ccc(-c4nn[nH]n4)cc23)c1`: the IC50 fell in the range of 0.5 to 10 µM.

In the case of `O=C(O)CNC(=O)c1ccc2[nH]nc(-c3ccc(F)cc3)c2c1`, the IC50 fell in the range of 1 to 10 µM.

Consider `CN(C)CCCNC(=O)c1ccc2[nH]nc(-c3cc4ccccc4o3)c2c1`, for which the IC50 fell in the range of 1 to 10 µM.

In the case of `CC(C)(C)NC(=O)c1cccc(-c2n[nH]c3ccc(-c4ncn[nH]4)cc23)c1`, the IC50 is 0.5 to 10 µM.

`O=C(Nc1ccc(-c2n[nH]c3ccc(-c4ncn[nH]4)cc23)cc1)c1ccco1`: the IC50 lay in the range of 1 to 10 µM.

Consider `O=[N+]([O-])c1ccc2[nH]nc(-c3ccc4ccccc4c3)c2c1`, for which the IC50 is no more than 10 µM.

On to `CN(C)Cc1nc(-c2ccc3[nH]nc(-c4cccc(NC(=O)[C@H](O)c5ccccc5)c4)c3c2)n[nH]1`, for which the IC50 fell in the range of 0.5 to 10 µM.

`OC1CCN(Cc2nnc(-c3ccc4[nH]nc(-c5ccc(F)cc5)c4c3)[nH]2)CC1`: the IC50 is 1 to 10 µM.

In the case of `O=C(Nc1ccccc1)c1ccc2[nH]nc(-c3ccc(F)cc3)c2c1`, the concentration for half-maximal inhibition (IC50) was no more than 10 µM.

`O=C(Nc1cccc(-c2n[nH]c3ccc(-c4nc[nH]n4)cc23)c1)c1ccno1`: the IC50 lay within 0.5 to 10 µM.

As for `CN(C)CC(=O)Nc1cccc(-c2n[nH]c3ccc(C(N)=O)cc23)c1`, the concentration for half-maximal inhibition (IC50) lay within 1 to 10 µM.

`COC(=O)CCc1nnc(-c2ccc3[nH]nc(-c4ccc(F)cc4)c3c2)[nH]1`: the IC50 fell in the range of 1 to 10 µM.

Regarding `Fc1ccc(-c2n[nH]c3ccc(-c4nc(-c5ccccc5)n[nH]4)cc23)cc1`, the IC50 lay within 1 to 10 µM.

For `CC(O)Cc1nnc(-c2ccc3[nH]nc(-c4ccc(F)cc4)c3c2)[nH]1` (stereo in doubt; form 2), the IC50 was 1 to 10 µM.

Turning to `O=C(Nc1cccc(-c2n[nH]c3ccc(-c4nc[nH]n4)cc23)c1)c1ccoc1`, the IC50 fell in the range of 0.5 to 10 µM.

Consider `NC(=O)c1ccc2[nH]nc(-c3ccoc3)c2c1`, for which the IC50 was in the range of 1 to 10 µM.

Take `C[C@@H](NC(=O)c1cccc(-c2n[nH]c3ccc(-c4ncn[nH]4)cc23)c1)c1ccccc1`: the IC50 lay within 0.5 to 10 µM.

As to `NNC(=O)c1ccc2[nH]nc(-c3ccc(F)cc3)c2c1`, the IC50 was in the range of 1 to 10 µM.

Turning to `CCCc1n[nH]c(-c2ccc3[nH]nc(-c4ccc(F)cc4)c3c2)n1`, the IC50 lay within 1 to 10 µM.

Regarding `CN(C)CCOc1cccc(-c2n[nH]c3ccc(-c4nnn[nH]4)cc23)c1`, the IC50 lay within 1 to 10 µM.

Turning to `NC(=O)c1ccc2[nH]nc(-c3cccc(NC(=O)Cc4ccc(Cl)cc4)c3)c2c1`, the concentration for half-maximal inhibition (IC50) is 1 to 10 µM.

In the case of `O=C(Nc1cccc(-c2n[nH]c3ccc(-c4nc[nH]n4)cc23)c1)c1ccccc1`, the IC50 lay within 0.5 to 10 µM.

On to `NC(=O)c1ccc2[nH]nc(-c3cccc(NC(=O)Cc4ccccc4F)c3)c2c1`, for which the IC50 was in the range of 0.5 to 10 µM.

Turning to `O=C(Nc1cccc(-c2n[nH]c3ccc(-c4nc[nH]n4)cc23)c1)[C@@H](O)c1ccccc1`, the IC50 lay in the range of 0.5 to 10 µM.

With `CN(C)Cc1n[nH]c(-c2ccc3[nH]nc(-c4cccc(C(=O)NCCN5CCCCC5)c4)c3c2)n1`, the IC50 was 0.5 to 10 µM.

With `CC(C)(C)CNC(=O)c1cccc(-c2n[nH]c3ccc(-c4ncn[nH]4)cc23)c1`, the IC50 lay within 1 to 10 µM.

Take `COc1ccc2cc(-c3n[nH]c4ccc(-c5n[nH]c(CN(C)C)n5)cc34)ccc2c1`: the concentration for half-maximal inhibition (IC50) lay within 1 to 10 µM.

For the compound `O=C(O)c1ccc2[nH]nc(-c3cc4ccccc4s3)c2c1`, the IC50 fell in the range of 1 to 10 µM.

In the case of `c1cc(-c2n[nH]c3ccc(-c4nnn[nH]4)cc23)ccc1OCCN1CCOCC1`, the IC50 fell in the range of 0.5 to 10 µM.

Regarding `O=C(NCC1CC1)c1cccc(-c2n[nH]c3ccc(-c4ncn[nH]4)cc23)c1`, the IC50 was in the range of 0.5 to 10 µM.

On to `Nc1cccc(-c2n[nH]c3ccc(-c4nnc[nH]4)cc23)c1`, for which the IC50 is 1 to 10 µM.

For `NC(=O)c1ccc2[nH]nc(-c3ccc(O)cc3)c2c1`, the IC50 was in the range of 1 to 10 µM.

Take `O=C(O)c1cccc(-c2n[nH]c3ccc(-c4nc[nH]n4)cc23)c1`: the IC50 was in the range of 1 to 10 µM.

For `CN(C)c1ccc(CC(=O)Nc2cccc(-c3n[nH]c4ccc(C(N)=O)cc34)c2)cc1`, the IC50 fell in the range of 1 to 10 µM.

Take `O=C(O)c1ccc(C(=O)Nc2ccc3[nH]nc(-c4ccccc4)c3c2)cc1`: the IC50 lay within 1 to 10 µM.

For `NC(=O)CCCNC(=O)c1ccc2[nH]nc(-c3ccc(F)cc3)c2c1`, the IC50 is 1 to 10 µM.

With `CN(C)C(=O)c1ccc2[nH]nc(-c3ccc(F)cc3)c2c1`, the IC50 is no more than 10 µM.

Take `C[C@H](O)C(=O)Nc1cccc(-c2n[nH]c3ccc(-c4nn[nH]n4)cc23)c1`: the IC50 is 0.5 to 10 µM.

For the compound `NC(=O)c1ccc2[nH]nc(-c3cccc(NC(=O)Cc4ccccc4)c3)c2c1`, the IC50 lay in the range of 0.5 to 10 µM.

In the case of `O=C(O)CCc1ccc2[nH]nc(-c3ccc(F)cc3)c2c1`, the IC50 is no more than 10 µM.

`NC(=O)c1ccc2[nH]nc(-c3cccc(C(=O)NCCN4CCCCC4)c3)c2c1`: the IC50 was in the range of 1 to 10 µM.

As to `CC(=O)NCCOc1cccc(-c2n[nH]c3ccc(-c4ncn[nH]4)cc23)c1`, the IC50 lay within 1 to 10 µM.

For `CN(C)Cc1n[nH]c(-c2ccc3[nH]nc(-c4cccc(C(=O)NC5CCC5)c4)c3c2)n1`, the IC50 was in the range of 0.5 to 10 µM.

In the case of `COc1ccccc1C(=O)Nc1ccc2[nH]nc(-c3ccc(F)cc3)c2c1`, the IC50 is no more than 10 µM.

Consider `C[C@H](NC(=O)c1cccc(-c2n[nH]c3ccc(-c4ncn[nH]4)cc23)c1)c1ccccc1`, for which the IC50 was 1 to 10 µM.

Consider `CC(Oc1ccccc1)C(=O)Nc1cccc(-c2n[nH]c3ccc(-c4nc[nH]n4)cc23)c1` (stereo not given), for which the IC50 is 0.5 to 10 µM.

In the case of `O=c1[nH]c(-c2ccc3[nH]nc(-c4ccc(F)cc4)c3c2)no1`, the IC50 is 0.5 to 10 µM.

Consider `COc1ccc2cc(-c3n[nH]c4ccc(-c5n[nH]c(CN6CCCC6)n5)cc34)ccc2c1`, for which the IC50 was 0.5 to 10 µM.

With `O=C(Cc1ccccc1)Nc1cccc(-c2n[nH]c3ccc(-c4nnc[nH]4)cc23)c1`, the IC50 fell in the range of 0.5 to 10 µM.

As to `Oc1ccccc1-c1n[nH]c2ccc(-c3nnn[nH]3)cc12`, the IC50 was in the range of 1 to 10 µM.

In the case of `COc1ccc(-c2n[nH]c3ccc(NC(=O)c4ccc(C(=O)O)cc4)cc23)cc1`, the IC50 is 1 to 10 µM.

Turning to `Clc1ccccc1-c1n[nH]c2ccc(-c3ncn[nH]3)cc12`, the IC50 is 1 to 10 µM.

Consider `CN(C)Cc1nnc(-c2ccc3[nH]nc(-c4ccc(F)cc4)c3c2)[nH]1`, for which the IC50 is 0.5 to 10 µM.

`Nc1ccc(C(=O)Nc2ccc3[nH]nc(-c4ccccc4)c3c2)cc1`: the IC50 fell in the range of 1 to 10 µM.

With `Fc1ccc(-c2n[nH]c3ccc(-c4nn[nH]n4)cc23)cc1`, the IC50 fell in the range of 0.5 to 10 µM.

In the case of `Cc1ccc(/C=C/c2n[nH]c3ccc(-c4nnc[nH]4)cc23)cc1`, the IC50 fell in the range of 1 to 10 µM.

For `CCOC(=O)Cc1n[nH]c(-c2ccc3[nH]nc(-c4ccc(F)cc4)c3c2)n1`, the IC50 fell in the range of 1 to 10 µM.

For the compound `c1ccc2oc(-c3n[nH]c4ccc(-c5nnn[nH]5)cc34)cc2c1`, the IC50 lay in the range of 0.5 to 10 µM.

Consider `COc1ccc(-c2n[nH]c3ccc(-c4n[nH]c(CN(C)C)n4)cc23)cc1`, for which the IC50 is 0.5 to 10 µM.

As for `O=C(Nc1cccc(-c2n[nH]c3ccc(-c4nc[nH]n4)cc23)c1)C(=O)c1ccccc1`, the IC50 was in the range of 1 to 10 µM.

On to `CS(=O)(=O)Nc1cccc(-c2n[nH]c3ccc(-c4nnc[nH]4)cc23)c1`, for which the IC50 lay in the range of 1 to 10 µM.

As for `CN(C)CCNC(=O)c1cccc(-c2n[nH]c3ccc(-c4ncn[nH]4)cc23)c1`, the IC50 lay within 0.5 to 10 µM.

In the case of `CC(Oc1ccccc1)C(=O)Nc1cccc(-c2n[nH]c3ccc(-c4nn[nH]n4)cc23)c1` (stereo not given), the IC50 is 0.5 to 10 µM.

As for `O=C(Nc1cccc([N+](=O)[O-])c1)c1ccc2[nH]nc(-c3ccc(F)cc3)c2c1`, the IC50 was 1 to 10 µM.

Take `O=[N+]([O-])c1ccc2[nH]nc(-c3cccc4ccccc34)c2c1`: the IC50 was no more than 10 µM.

As to `FC(F)(F)c1ccc2[nH]nc(-c3ccccc3)c2c1`, the concentration for half-maximal inhibition (IC50) is no more than 10 µM.

Regarding `O=C(Nc1ccc2[nH]nc(-c3ccc(F)cc3)c2c1)c1cccnc1`, the IC50 was 1 to 10 µM.

In the case of `NCCNC(=O)c1ccc2[nH]nc(-c3ccc(F)cc3)c2c1`, the IC50 was no more than 10 µM.

Consider `c1cc(OCCN2CCCC2)cc(-c2n[nH]c3ccc(-c4ncn[nH]4)cc23)c1`, for which the IC50 was 1 to 10 µM.

Take `NC(=O)c1ccc2[nH]nc(-c3cccc(NC(=O)Cc4ccc(F)c(F)c4)c3)c2c1`: the IC50 fell in the range of 1 to 10 µM.

In the case of `O=C(Nc1ccccc1)c1cccc(-c2n[nH]c3ccc(-c4nc[nH]n4)cc23)c1`, the IC50 fell in the range of 0.5 to 10 µM.

With `CN(C)Cc1nc(-c2ccc3[nH]nc(-c4ccc5c(c4)OCO5)c3c2)n[nH]1`, the IC50 fell in the range of 0.5 to 10 µM.

For the compound `O=C(NC1CC1)c1cccc(-c2n[nH]c3ccc(-c4nc[nH]n4)cc23)c1`, the IC50 fell in the range of 0.5 to 10 µM.

In the case of `O=C(Nc1cccc(-c2n[nH]c3ccc(-c4nc[nH]n4)cc23)c1)c1cccnc1`, the IC50 fell in the range of 0.5 to 10 µM.

With `c1ccc(CCc2n[nH]c3ccc(-c4nnn[nH]4)cc23)cc1`, the IC50 is 1 to 10 µM.

For the compound `NC(=O)c1ccc2[nH]nc(-c3cccc(NC(=O)c4cccnc4)c3)c2c1`, the IC50 lay in the range of 1 to 10 µM.

Turning to `NC(=O)c1ccc2[nH]nc(-c3cccc(NC(=O)c4cccc(O)c4)c3)c2c1`, the IC50 is 1 to 10 µM.

As for `CC(=O)O[C@@H](C)C(=O)Nc1cccc(-c2n[nH]c3ccc(C(N)=O)cc23)c1`, the IC50 lay within 0.5 to 10 µM.

In the case of `CC(c1nc(-c2ccc3[nH]nc(-c4ccc(F)cc4)c3c2)n[nH]1)N(C)C` (stereo not given), the IC50 is 0.5 to 10 µM.

Turning to `Oc1ccc2[nH]nc(-c3ccccc3)c2c1`, the IC50 is 1 to 10 µM.
